Experimental data taken from PubChem BioAssay AID248 (DTP/NCI, 2004).
“And” between values parts separate entries of the source, which are not always exact repeats. Equal entries are not always repeated. Inconclusive results and toxic doses are left out. No stated cut-off is given here; in the data, active means T/C of 150% or more; inactive means T/C below 125%. Square brackets hold non-standard residues; d marks the D form. Peptide text beside a SMILES is read from it. ξ: configuration not given here. ξE = NC(CCC(=O)O)C(=O)O

System: L1210 leukemia ip in BDF1 mice, survival T/C
Assay: NCI In Vivo Anticancer Drug Screen. Data for tumor model L1210 Leukemia (intraperitoneal) in B6D2F1 (BDF1) mice
Settings: endpoint: mean survival time, higher = longer survival
Procedure, shortened: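 Transplanted-tumor mice were given test agent; controls received vehicle only. Survival readings from the two groups were divided (treated over control).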

[1] = dose: 100.0 mg/kg/injection, schedule: Q01DX009 (ip), vehicle: saline with Tween-80
[2] = dose: 200.0 mg/kg/injection, schedule: Q01DX009 (ip), vehicle: saline with Tween-80
[3] = dose: 400.0 mg/kg/injection, schedule: Q01DX009 (ip), vehicle: saline with Tween-80
[4] = dose: 5.0 mg/kg/injection, schedule: Q01DX001 (ip), vehicle: saline
[5] = dose: 10.0 mg/kg/injection, schedule: Q01DX001 (ip), vehicle: saline
[6] = dose: 100.0 mg/kg/injection, schedule: Q01DX001 (ip), vehicle: saline
[7] = dose: 25.0 mg/kg/injection, schedule: Q01DX009 (ip), vehicle: saline with Tween-80
[8] = dose: 25.0 mg/kg/injection, schedule: Q04DX003 (ip), vehicle: saline with Tween-80
[9] = dose: 50.0 mg/kg/injection, schedule: Q01DX009 (ip), vehicle: saline with Tween-80
[10] = dose: 50.0 mg/kg/injection, schedule: Q04DX003 (ip), vehicle: saline with Tween-80
[11] = dose: 100.0 mg/kg/injection, schedule: Q04DX003 (ip), vehicle: saline with Tween-80
[12] = dose: 200.0 mg/kg/injection, schedule: Q01DX001 (ip), vehicle: saline
[13] = dose: 100.0 mg/kg/injection, schedule: Q01DX001 (ip), vehicle: saline with Tween-80
[14] = dose: 200.0 mg/kg/injection, schedule: Q01DX001 (ip), vehicle: saline with Tween-80
[15] = dose: 400.0 mg/kg/injection, schedule: Q01DX001 (ip), vehicle: saline with Tween-80
[16] = dose: 200.0 mg/kg/injection, schedule: Q04DX003 (ip), vehicle: saline with Tween-80
[17] = dose: 400.0 mg/kg/injection, schedule: Q04DX003 (ip), vehicle: saline with Tween-80
[18] = dose: 100.0 mg/kg/injection, schedule: Q01DX001 (ip), vehicle: Klucel (hydroxypropylcellulose) (HPC)
[19] = dose: 400.0 mg/kg/injection, schedule: Q01DX001 (ip), vehicle: saline

Measured: T/C

CCOc1ccccc1NC(=O)c1cccc(F)c1
inactive: [1] 101 % of control | [2] 104 % of control | [3] 101 % of control

CN(N=O)C(=O)N(C)C(=O)N(C)N=O
inactive: dose: 6.25 mg/kg/injection, schedule: Q01DX Z (ip), vehicle: carboxymethylcellulose (CMC) 104 % of control | dose: 12.5 mg/kg/injection, schedule: Q01DX Z (ip), vehicle: carboxymethylcellulose (CMC) 112 % of control | dose: 25.0 mg/kg/injection, schedule: Q01DX Z (ip), vehicle: carboxymethylcellulose (CMC) 108 % of control | dose: 50.0 mg/kg/injection, schedule: Q01DX Z (ip), vehicle: carboxymethylcellulose (CMC) 92 % of control

O=C(O)c1ccc(C(=O)O)nn1
inactive: dose: 100.0 mg/kg/injection, schedule: Q04DX002 (ip), vehicle: saline 96 % of control | dose: 200.0 mg/kg/injection, schedule: Q04DX002 (ip), vehicle: saline 90 % of control

CC[N+](C)(CC)CCNC(c1ccccc1)C(Cl)(Cl)Cl (stereo not drawn)
inactive: [4] 92 % of control | [5] 95 % of control | dose: 20.0 mg/kg/injection, schedule: Q01DX001 (ip), vehicle: saline 103 % of control | dose: 40.0 mg/kg/injection, schedule: Q01DX001 (ip), vehicle: saline 95 % of control | dose: 80.0 mg/kg/injection, schedule: Q01DX001 (ip), vehicle: saline 106 % of control | [6] 102 % of control

NC(CCC(=O)O)C(=O)NCC(=O)O (stereo not drawn) (H-[ξE]-Gly-OH)
inactive: dose: 12.5 mg/kg/injection, schedule: Q04DX002 (ip), vehicle: saline 96 % of control | dose: 25.0 mg/kg/injection, schedule: Q04DX002 (ip), vehicle: saline 102 % of control | dose: 50.0 mg/kg/injection, schedule: Q04DX002 (ip), vehicle: saline 90 % of control

CCCCCCc1nc2nc(Cl)c(Cl)nc2[nH]1
inactive: [7] 93 % of control | [8] 105 % of control | [9] 96 % of control | [10] 98 % of control | [1] 106 % of control | [11] 95 % of control and 103 % of control | dose: 150.0 mg/kg/injection, schedule: Q01DX009 (ip), vehicle: saline with Tween-80 98 % of control

C/C(=C\COc1ccc(C)cc1)CC/C=C(\C)CCC1OC1(C)C (stereo not drawn)
inactive: dose: 50.0 mg/kg/injection, schedule: Q04DX002 (ip), vehicle: saline with Tween-80 108 % of control | dose: 100.0 mg/kg/injection, schedule: Q04DX002 (ip), vehicle: saline with Tween-80 108 % of control | dose: 200.0 mg/kg/injection, schedule: Q04DX002 (ip), vehicle: saline with Tween-80 92 % of control

CCCCCCSC1=C(SCCCCCC)C(=O)c2[nH]cnc2C1=O
inactive: dose: 50.0 mg/kg/injection, schedule: Q01DX001 (ip), vehicle: carboxymethylcellulose (CMC) 100 % of control | dose: 100.0 mg/kg/injection, schedule: Q01DX001 (ip), vehicle: carboxymethylcellulose (CMC) 95 % of control | dose: 200.0 mg/kg/injection, schedule: Q01DX001 (ip), vehicle: carboxymethylcellulose (CMC) 90 % of control | dose: 400.0 mg/kg/injection, schedule: Q01DX001 (ip), vehicle: carboxymethylcellulose (CMC) 90 % of control

Cc1cs[n+](C)c1
inactive: [6] 94 % of control | [12] 97 % of control

O=C(CS(=O)(=O)O)Nc1ccccc1
inactive: [13] 94 % of control | [14] 97 % of control | [15] 100 % of control

CC(C)(C)OC1C=CCCC1 (stereo not drawn)
inactive: [11] 96 % of control | [16] 96 % of control | [17] 96 % of control

CC(=O)Nc1nc(C)c(CCCNS(=O)(=O)c2ccc(N)cc2)c(=O)[nH]1
inactive: dose: 25.0 mg/kg/injection, schedule: Q01DX001 (ip), vehicle: Klucel (hydroxypropylcellulose) (HPC) 102 % of control | dose: 50.0 mg/kg/injection, schedule: Q01DX001 (ip), vehicle: Klucel (hydroxypropylcellulose) (HPC) 92 % of control | [18] 95 % of control

COC1OCC(N=[N+]=[N-])C(OC)C1O (stereo not drawn)
inactive: [11] 100 % of control | [16] 100 % of control | [17] 98 % of control

CNC(=O)NCC1OC(n2cnc3c(N)ncnc32)C(O)C1O (stereo not drawn)
inactive: [18] 98 % of control | dose: 200.0 mg/kg/injection, schedule: Q01DX001 (ip), vehicle: Klucel (hydroxypropylcellulose) (HPC) 98 % of control | dose: 400.0 mg/kg/injection, schedule: Q01DX001 (ip), vehicle: Klucel (hydroxypropylcellulose) (HPC) 95 % of control

CCOC(=O)C(C)N (stereo not drawn)
inactive: dose: 100.0 mg/kg/injection, schedule: Q01DX009 (ip), vehicle: Klucel (hydroxypropylcellulose) (HPC) 93 % of control | dose: 100.0 mg/kg/injection, schedule: Q04DX003 (ip), vehicle: Klucel (hydroxypropylcellulose) (HPC) 105 % of control | dose: 200.0 mg/kg/injection, schedule: Q01DX009 (ip), vehicle: Klucel (hydroxypropylcellulose) (HPC) 93 % of control | dose: 200.0 mg/kg/injection, schedule: Q04DX003 (ip), vehicle: Klucel (hydroxypropylcellulose) (HPC) 102 % of control | dose: 400.0 mg/kg/injection, schedule: Q01DX009 (ip), vehicle: Klucel (hydroxypropylcellulose) (HPC) 97 % of control | dose: 400.0 mg/kg/injection, schedule: Q04DX003 (ip), vehicle: Klucel (hydroxypropylcellulose) (HPC) 97 % of control

COc1ccc2[nH]c3c(C)c4c(c(C)c3c2c1)CN(C)CC4
inactive: dose: 29.0 mg/kg/injection, schedule: Q01DX Z (ip), vehicle: saline 96 % of control | dose: 44.0 mg/kg/injection, schedule: Q01DX Z (ip), vehicle: saline 98 % of control | dose: 66.0 mg/kg/injection, schedule: Q01DX Z (ip), vehicle: saline 102 % of control | [6] 105 % of control | dose: 100.0 mg/kg/injection, schedule: Q01DX Z (ip), vehicle: saline 98 % of control | dose: 150.0 mg/kg/injection, schedule: Q01DX Z (ip), vehicle: saline 100 % of control | [12] 100 % of control | [19] 102 % of control

C(=N\Nc1nnn(Cc2ccccc2)n1)/c1ccccc1
inactive: [1] 95 % of control | [11] 110 % of control | [2] 102 % of control | [16] 102 % of control | [3] 93 % of control | [17] 90 % of control

Cc1ccc([N+](=O)[O-])cc1NC(=O)NCc1ccc(Cl)cc1
inactive: [1] 87 % of control | [2] 106 % of control | [3] 95 % of control

CNC(=S)SC
inactive: dose: 50.0 mg/kg/injection, schedule: Q01DX001 (ip), vehicle: saline 90 % of control | [6] 98 % of control | [12] 96 % of control

CC(=O)CCC(C(C)=O)C(C)=O
inactive: [6] 106 % of control | [12] 106 % of control | [19] 103 % of control

OC(CC(O)(C(F)(F)F)C(F)(F)F)c1cccc(Cl)c1 (stereo not drawn)
inactive: dose: 50.0 mg/kg/injection, schedule: Q01DX009 (ip), vehicle: gum acacia 96 % of control | dose: 100.0 mg/kg/injection, schedule: Q01DX009 (ip), vehicle: gum acacia 94 % of control | dose: 100.0 mg/kg/injection, schedule: Q04DX003 (ip), vehicle: gum acacia 104 % of control | dose: 200.0 mg/kg/injection, schedule: Q04DX003 (ip), vehicle: gum acacia 95 % of control

CN(C)Cc1cc(O)c(CN(C)C)cc1O
inactive: [7] 110 % of control | [8] 88 % of control | [9] 103 % of control | [10] 93 % of control | [11] 96 % of control

CCc1cc2oc(C)c(C)c2c(N=Nc2ccc([N+](=O)[O-])cc2)c1O
inactive: dose: 100.0 mg/kg/injection, schedule: Q04DX002 (ip), vehicle: Klucel (hydroxypropylcellulose) (HPC) 102 % of control | dose: 200.0 mg/kg/injection, schedule: Q04DX002 (ip), vehicle: Klucel (hydroxypropylcellulose) (HPC) 96 % of control | dose: 400.0 mg/kg/injection, schedule: Q04DX002 (ip), vehicle: Klucel (hydroxypropylcellulose) (HPC) 99 % of control

OCC1OC(n2cc(Br)c3c(NO)ncnc32)C(O)C1O (stereo not drawn)
inactive: [4] 103 % of control | [5] 101 % of control

NNC(=O)C1CCN1C(c1ccccc1)c1ccccc1 (stereo not drawn)
inactive: dose: 25.0 mg/kg/injection, schedule: Q01DX001 (ip), vehicle: saline with Tween-80 101 % of control | dose: 50.0 mg/kg/injection, schedule: Q01DX001 (ip), vehicle: saline with Tween-80 101 % of control | [13] 97 % of control

Nc1ncnc2nc(-c3ccc(CNC(=O)CCc4ccc(S(=O)(=O)F)cc4)cc3)[nH]c12
inactive: [13] 89 % of control | [14] 89 % of control | [15] 89 % of control
